Results reported in patent US4740233A, “Substituted 1,2,4-triazolo[1,5-a]-pyrimidine-2-sulfonamides and compositions and methods of controlling undesired vegetation and suppressing the nitrification of ammonium nitrogen in soil” (The Dow Chemical Company, priority 1986, dated 1988).

Tests used:
cotton [1] = assay: Postemergent control of plant species; assay type: in vivo, Gossypium spp.; details: Gossypium hirsutum, post-emergence, 336 h, read-out: percent postemergent control
Procedure, shortened: (§1)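 Spray emulsion: acetone stock at twice final concentration plus equal volume water with 0.1% wetting agent, applied to separated greenhouse beds at 2-4 leaf stage. Assessed at ~two weeks; score reflects growth reduction compared with untreated plants.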

rape [2] = assay: Postemergent control of plant species; assay type: in vivo, Brassica napus; details: Brassica napus, post-emergence, 336 h, read-out: percent postemergent control
Procedure, shortened: as §1

soybean [3] = assay: Postemergent control of plant species; assay type: in vivo, Glycine max.; details: Glycine max, post-emergence, 336 h, read-out: percent postemergent control
Procedure, shortened: as §1

sugar beet [4] = assay: Postemergent control of plant species; assay type: in vivo, Beta saccharifera; details: Beta vulgaris, post-emergence, 336 h, read-out: percent postemergent control
Procedure, shortened: as §1

cocklebur = assay: Postemergent control of plant species; assay type: in vivo, Xanthium spp.; details: Xanthium strumarium, post-emergence, 336 h, read-out: percent postemergent control
Procedure, shortened: as §1

jimsonweed [5] = assay: Postemergent control of plant species; assay type: in vivo, Datura stramonium; details: Datura stramonium, post-emergence, 336 h, read-out: percent postemergent control
Procedure, shortened: as §1

annual morning glory [6] = assay: Postemergent control of plant species; assay type: in vivo, Ipomoea spp.; details: Ipomoea, post-emergence, 336 h, read-out: percent postemergent control
Procedure, shortened: as §1

pigweed = assay: Postemergent control of plant species; assay type: in vivo, Amaranthus spp.; details: Amaranthus retroflexus, post-emergence, 336 h, read-out: percent postemergent control
Procedure, shortened: as §1

velvetleaf [7] = assay: Postemergent control of plant species; assay type: in vivo, Abutilon theophrasti; details: Abutilon theophrasti, post-emergence, 336 h, read-out: percent postemergent control
Procedure, shortened: as §1

corn [8] = assay: Postemergent control of plant species; assay type: in vivo, Zea mays; details: Zea mays, post-emergence, 336 h, read-out: percent postemergent control
Procedure, shortened: as §1

rice [9] = assay: Postemergent control of plant species; assay type: in vivo, Oryza sativa; details: Oryza sativa, post-emergence, 336 h, read-out: percent postemergent control
Procedure, shortened: as §1

sorghum [10] = assay: Postemergent control of plant species; assay type: in vivo, Sorghum vulgare; details: Sorghum, post-emergence, 336 h, read-out: percent postemergent control
Procedure, shortened: as §1

wheat [11] = assay: Postemergent control of plant species; assay type: in vivo, Triticum aestivum; details: Triticum aestivum, post-emergence, 336 h, read-out: percent postemergent control
Procedure, shortened: as §1

barnyardgrass [12] = assay: Postemergent control of plant species; assay type: in vivo, Echinochloa crusgalli; details: Echinochloa crus-galli, post-emergence, 336 h, read-out: percent postemergent control
Procedure, shortened: as §1

crabgrass = assay: Postemergent control of plant species; assay type: in vivo, Digitaria spp.; details: Digitaria sanguinalis, post-emergence, 336 h, read-out: percent postemergent control
Procedure, shortened: as §1

yellow foxtail [13] = assay: Postemergent control of plant species; assay type: in vivo, Setaria lutescens; details: Setaria, post-emergence, 336 h, read-out: percent postemergent control
Procedure, shortened: as §1

johnson grass [14] = assay: Postemergent control of plant species; assay type: in vivo, Sorghum halepense; details: Sorghum halepense, post-emergence, 336 h, read-out: percent postemergent control
Procedure, shortened: as §1

wild oats [15] = assay: Postemergent control of plant species; assay type: in vivo, Avena fatua; details: Avena fatua, post-emergence, 336 h, read-out: percent postemergent control
Procedure, shortened: as §1

yellow nutsedge [16] = assay: Postemergent control of plant species; assay type: in vivo, Cyperus esculentus; details: Cyperus, post-emergence, 336 h, read-out: percent postemergent control
Procedure, shortened: as §1

cotton [17] = assay: Preemergent control of plant species; assay type: in vivo, Gossypium spp.; details: Gossypium hirsutum, pre-emergence, 336 h; 0.25 lb/acre; read-out: percent preemergent control
Procedure, shortened: (§2)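 Test compositions were applied evenly to the surface of freshly seeded soil beds and kept under greenhouse conditions for two weeks. Percent control reflects growth reduction compared with water-treated beds of the same species.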

rape [18] = assay: Preemergent control of plant species; assay type: in vivo, Brassica napus; details: Brassica napus, pre-emergence, 336 h; 0.25 lb/acre; read-out: percent preemergent control
Procedure, shortened: as §2

soybean [19] = assay: Preemergent control of plant species; assay type: in vivo, Glycine max.; details: Glycine max, pre-emergence, 336 h; 0.25 lb/acre; read-out: percent preemergent control
Procedure, shortened: as §2

sugar beet [20] = assay: Preemergent control of plant species; assay type: in vivo, Beta saccharifera; details: Beta vulgaris, pre-emergence, 336 h; 0.25 lb/acre; read-out: percent preemergent control
Procedure, shortened: as §2

jimsonweed [21] = assay: Preemergent control of plant species; assay type: in vivo, Datura stramonium; details: Datura stramonium, pre-emergence, 336 h; 0.25 lb/acre; read-out: percent preemergent control
Procedure, shortened: as §2

annual morning glory [22] = assay: Preemergent control of plant species; assay type: in vivo, Ipomoea spp.; details: Ipomoea, pre-emergence, 336 h; 0.25 lb/acre; read-out: percent preemergent control
Procedure, shortened: as §2

velvetleaf [23] = assay: Preemergent control of plant species; assay type: in vivo, Abutilon theophrasti; details: Abutilon theophrasti, pre-emergence, 336 h; 0.25 lb/acre; read-out: percent preemergent control
Procedure, shortened: as §2

corn [24] = assay: Preemergent control of plant species; assay type: in vivo, Zea mays; details: Zea mays, pre-emergence, 336 h; 0.25 lb/acre; read-out: percent preemergent control
Procedure, shortened: as §2

rice [25] = assay: Preemergent control of plant species; assay type: in vivo, Oryza sativa; details: Oryza sativa, pre-emergence, 336 h; 0.25 lb/acre; read-out: percent preemergent control
Procedure, shortened: as §2

sorghum [26] = assay: Preemergent control of plant species; assay type: in vivo, Sorghum vulgare; details: Sorghum, pre-emergence, 336 h; 0.25 lb/acre; read-out: percent preemergent control
Procedure, shortened: as §2

wheat [27] = assay: Preemergent control of plant species; assay type: in vivo, Triticum aestivum; details: Triticum aestivum, pre-emergence, 336 h; 0.25 lb/acre; read-out: percent preemergent control
Procedure, shortened: as §2

barnyardgrass [28] = assay: Preemergent control of plant species; assay type: in vivo, Echinochloa crusgalli; details: Echinochloa crus-galli, pre-emergence, 336 h; 0.25 lb/acre; read-out: percent preemergent control
Procedure, shortened: as §2

johnson grass [29] = assay: Preemergent control of plant species; assay type: in vivo, Sorghum halepense; details: Sorghum halepense, pre-emergence, 336 h; 0.25 lb/acre; read-out: percent preemergent control
Procedure, shortened: as §2

wild oats [30] = assay: Preemergent control of plant species; assay type: in vivo; details: Avena fatua, pre-emergence, 336 h; 0.25 lb/acre; read-out: percent preemergent control
Procedure, shortened: as §2

yellow foxtail [31] = assay: Preemergent control of plant species; assay type: in vivo, Setaria lutescens; details: Setaria, pre-emergence, 336 h; 0.25 lb/acre; read-out: percent preemergent control
Procedure, shortened: as §2

yellow nutsedge [32] = assay: Preemergent control of plant species; assay type: in vivo, Cyperus esculentus; details: Cyperus, pre-emergence, 336 h; 0.25 lb/acre; read-out: percent preemergent control
Procedure, shortened: as §2

[33] = system: nitrification of ammonium nitrogen; assay: Suppression of nitrification of ammonium nitrogen in soil; details: 27° C.
Procedure, shortened: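 Value is % NH4-N remaining after a two-week, 27° C incubation of treated soil held at 1/3 bar tension moisture. Nitrate was measured with an ion-selective electrode after extraction with ammonium sulfate solution and 10 min shaking.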

| Structure (SMILES) | plant injury at 500 ppm (cotton [1]) | plant injury at 500 ppm (rape [2]) | plant injury at 500 ppm (soybean [3]) | plant injury at 500 ppm (sugar beet [4]) | pest or weed control at 500 ppm (cocklebur) | pest or weed control at 500 ppm (jimsonweed [5]) | pest or weed control at 500 ppm (annual morning glory [6]) | pest or weed control at 500 ppm (pigweed) | pest or weed control at 500 ppm (velvetleaf [7]) | plant injury at 500 ppm (corn [8]) | plant injury at 500 ppm (rice [9]) | plant injury at 500 ppm (sorghum [10]) | plant injury at 500 ppm (wheat [11]) | pest or weed control at 500 ppm (barnyardgrass [12]) | pest or weed control at 500 ppm (crabgrass) | pest or weed control at 500 ppm (yellow foxtail [13]) | pest or weed control at 500 ppm (johnson grass [14]) | pest or weed control at 500 ppm (wild oats [15]) | pest or weed control at 500 ppm (yellow nutsedge [16]) | % NH4-N Remaining After 2 Weeks Incubation ([33]; 1 ppm) | also measured |
| --- | --- | --- | --- | --- | --- | --- | --- | --- | --- | --- | --- | --- | --- | --- | --- | --- | --- | --- | --- | --- | --- |
| Cc1ccn2nc(S(=O)(=O)Nc3c(C)nn(C)c3C(F)(F)F)nc2n1 [Compound 246] | 80% | 70% | 85% | 100% | 90% | 80% | 50% | 100% | 70% | 0% | 70% | 95% | 0% | 50% | 75% | 90% | 75% | 0% | 80% |  | plant injury at 280.212 g/ha (cotton [17]): 80%; plant injury at 280.212 g/ha (rape [18]): 80%; plant injury at 280.212 g/ha (soybean [19]): 90%; plant injury at 280.212 g/ha (sugar beet [20]): 90%; pest or weed control at 280.212 g/ha (jimsonweed [21]): 0%; pest or weed control at 280.212 g/ha (annual morning glory [22]): 0%; pest or weed control at 280.212 g/ha (velvetleaf [23]): 30%; plant injury at 280.212 g/ha (corn [24]): 20%; plant injury at 280.212 g/ha (rice [25]): 20%; plant injury at 280.212 g/ha (sorghum [26]): 95%; plant injury at 280.212 g/ha (wheat [27]): 10%; pest or weed control at 280.212 g/ha (barnyardgrass [28]): 0%; pest or weed control at 280.212 g/ha (johnson grass [29]): 20%; pest or weed control at 280.212 g/ha (wild oats [30]): 40%; pest or weed control at 280.212 g/ha (yellow foxtail [31]): 20%; pest or weed control at 280.212 g/ha (yellow nutsedge [32]): 20% |
| Cc1cc(C)n2nc(S(=O)(=O)Nc3c(Cl)cccc3CO)nc2n1 [Compound 93] | 0% | 70% | 90% | 70% | 80% | 80% | 0% | 70% | 20% | 0% | 0% | 0% | 0% | 0% | 0% | 0% | 0% | 0% | 15% | 64% | % NH4-N Remaining After 2 Weeks Incubation ([33]; 0.06 ppm): 79%; % NH4-N Remaining After 2 Weeks Incubation ([33]; 0.25 ppm): 57%; % NH4-N Remaining After 2 Weeks Incubation ([33]; 4 ppm): 89% |
| Cc1cc(C)n2nc(S(=O)(=O)Nc3ccc(F)cc3Cl)nc2n1 [Compound 30] | 0% | 40% | 30% | 0% | 40% | 0% | 60% | 0% | 40% | 0% | 20% | 0% | 0% | 0% | 0% | 0% | 0% | 0% | 0% | 54% | % NH4-N Remaining After 2 Weeks Incubation ([33]; 0.01 ppm): 0%; % NH4-N Remaining After 2 Weeks Incubation ([33]; 0.1 ppm): 6%; % NH4-N Remaining After 2 Weeks Incubation ([33]; 10 ppm): 81% |
| Cc1nc2nc(S(=O)(=O)Nc3ccccc3C(F)(F)F)nn2c2c1CCC2 [Compound 106] | 30% | 40% | 90% | 0% | 90% | 0% | 80% | 40% | 0% | 90% | 30% | 40% | 20% | 30% | 0% | 0% | 90% | 30% | 0% | 88% | % NH4-N Remaining After 2 Weeks Incubation ([33]; 0.01 ppm): 29%; % NH4-N Remaining After 2 Weeks Incubation ([33]; 0.1 ppm): 56%; % NH4-N Remaining After 2 Weeks Incubation ([33]; 10 ppm): 96% |
